Measured values as given in the supplement of paper PMC10307832.

Tests used:
Assay in all cases: relative viability (nuclei count vs DMSO), 5 days (fraction); higher = more cells survive
[1] = tested on: NCI-H520
Outline: (§1)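 After 5 days of treatment, lung cancer cells in 1536-well plates were fixed and stained in a single step (final 0.05% Triton X-100, 1% formaldehyde, 1 ug/ml Hoechst) and their nuclei counted on 4× images. Treatment had been applied by pin tool the day after seeding as one drug alone or as a fixed anchor-drug dose with five library-drug doses (not always all listed) in √10 steps. Relative viability is the nuclei count of treated wells divided by that of vehicle wells, and values are medians of duplicate plates.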

[2] = tested on: NCI-H1651
Outline: as §1

[3] = tested on: NCI-H647
Outline: as §1

[4] = tested on: H3255
Outline: as §1

[5] = tested on: HCC-15
Outline: as §1

[6] = tested on: NCI-H1755
Outline: as §1

[7] = tested on: NCI-H727
Outline: as §1

[8] = tested on: NCI-H650
Outline: as §1

[9] = tested on: LCLC-103H
Outline: as §1

[10] = tested on: NCI-H1437
Outline: as §1

[11] = tested on: HCC-827
Outline: as §1

[12] = tested on: NCI-H661
Outline: as §1

[13] = tested on: NCI-H1650
Outline: as §1

[14] = tested on: NCI-H2087
Outline: as §1

[15] = tested on: COR-L23
Outline: as §1

[16] = tested on: EPLC-272H
Outline: as §1

[17] = tested on: NCI-H1975
Outline: as §1

[18] = tested on: NCI-H1792
Outline: as §1

[19] = tested on: COR-L 105
Outline: as §1

## COCC1(CO)C(=O)C2CCN1CC2 (configuration not stated) [PRIMA-1MET] + CC(C)C[C@H](NC(=O)[C@H](Cc1ccccc1)NC(=O)c1cnccn1)B(O)O [Bortezomib] (partner 0.002 µM)
[1]; first compound 0.2 µM
  relative viability: 0.545
[1]; first compound 0.6325 µM
  relative viability: 0.503
[1]; first compound 6.325 µM
  relative viability: 0.613
[1]; first compound 20 µM
  relative viability: 0.113
[2]; first compound 0.2 µM
  relative viability: 0.929
[2]; first compound 0.6325 µM
  relative viability: 0.847
[2]; first compound 2 µM
  relative viability: 0.874
[2]; first compound 6.325 µM
  relative viability: 0.975
[2]; first compound 20 µM
  relative viability: 0.844
[3]; first compound 0.2 µM
  relative viability: 1.19
[3]; first compound 0.6325 µM
  relative viability: 1.06
[3]; first compound 2 µM
  relative viability: 0.876
[3]; first compound 6.325 µM
  relative viability: 1.17
[3]; first compound 20 µM
  relative viability: 0.686
[4]; first compound 0.2 µM
  relative viability: 0.814
[4]; first compound 0.6325 µM
  relative viability: 0.461
[4]; first compound 2 µM
  relative viability: 0.771
[4]; first compound 6.325 µM
  relative viability: 0.815
[4]; first compound 20 µM
  relative viability: 0.69
[5]; first compound 0.2 µM
  relative viability: 1.02
[5]; first compound 0.6325 µM
  relative viability: 0.902
[5]; first compound 2 µM
  relative viability: 1.12
[5]; first compound 6.325 µM
  relative viability: 0.988
[5]; first compound 20 µM
  relative viability: 0.583
[6]; first compound 0.2 µM
  relative viability: 1.11
[6]; first compound 0.6325 µM
  relative viability: 0.892
[6]; first compound 2 µM
  relative viability: 0.877
[6]; first compound 6.325 µM
  relative viability: 0.974
[6]; first compound 20 µM
  relative viability: 0.975
[7]; first compound 0.2 µM
  relative viability: 0.573
[7]; first compound 0.6325 µM
  relative viability: 0.829
[7]; first compound 2 µM
  relative viability: 0.618
[7]; first compound 6.325 µM
  relative viability: 0.573
[7]; first compound 20 µM
  relative viability: 0.0549
[8]; first compound 0.2 µM
  relative viability: 1.11
[8]; first compound 2 µM
  relative viability: 0.816
[8]; first compound 6.325 µM
  relative viability: 0.508
[8]; first compound 20 µM
  relative viability: 0.117
[9]; first compound 0.2 µM
  relative viability: 1.35
[9]; first compound 0.6325 µM
  relative viability: 1.03
[9]; first compound 2 µM
  relative viability: 1.04
[9]; first compound 6.325 µM
  relative viability: 0.934
[9]; first compound 20 µM
  relative viability: 1
[10]; first compound 0.2 µM
  relative viability: 0.573
[10]; first compound 0.6325 µM
  relative viability: 0.403
[10]; first compound 2 µM
  relative viability: 0.538
[10]; first compound 6.325 µM
  relative viability: 0.594
[10]; first compound 20 µM
  relative viability: 0.432
[11]; first compound 0.2 µM
  relative viability: 1.13
[11]; first compound 0.6325 µM
  relative viability: 1.01
[11]; first compound 2 µM
  relative viability: 0.971
[11]; first compound 6.325 µM
  relative viability: 1.1
[11]; first compound 20 µM
  relative viability: 0.956
[12]; first compound 0.2 µM
  relative viability: 0.846
[12]; first compound 0.6325 µM
  relative viability: 0.69
[12]; first compound 6.325 µM
  relative viability: 0.817
[12]; first compound 20 µM
  relative viability: 0.623
[13]; first compound 0.2 µM
  relative viability: 0.207
[13]; first compound 0.6325 µM
  relative viability: 0.222
[13]; first compound 2 µM
  relative viability: 0.205
[13]; first compound 6.325 µM
  relative viability: 0.188
[13]; first compound 20 µM
  relative viability: 0.197
[14]; first compound 0.2 µM
  relative viability: 1
[14]; first compound 0.6325 µM
  relative viability: 0.673
[14]; first compound 2 µM
  relative viability: 0.795
[14]; first compound 6.325 µM
  relative viability: 0.888
[14]; first compound 20 µM
  relative viability: 0.647
[15]; first compound 0.2 µM
  relative viability: 1.29
[15]; first compound 0.6325 µM
  relative viability: 0.97
[15]; first compound 2 µM
  relative viability: 0.954
[15]; first compound 6.325 µM
  relative viability: 1.05
[15]; first compound 20 µM
  relative viability: 0.0202
[16]; first compound 0.2 µM
  relative viability: 1.03
[16]; first compound 0.6325 µM
  relative viability: 0.847
[16]; first compound 2 µM
  relative viability: 0.966
[16]; first compound 6.325 µM
  relative viability: 1.2
[16]; first compound 20 µM
  relative viability: 0.686
[17]; first compound 0.2 µM
  relative viability: 0.457
[17]; first compound 0.6325 µM
  relative viability: 0.408
[17]; first compound 2 µM
  relative viability: 0.399
[17]; first compound 6.325 µM
  relative viability: 0.4
[17]; first compound 20 µM
  relative viability: 0.419
[18]; first compound 0.2 µM
  relative viability: 0.959
[18]; first compound 0.6325 µM
  relative viability: 0.851
[18]; first compound 2 µM
  relative viability: 0.937
[18]; first compound 6.325 µM
  relative viability: 1
[18]; first compound 20 µM
  relative viability: 0.939
[19]; first compound 0.2 µM
  relative viability: 1.12
[19]; first compound 0.6325 µM
  relative viability: 0.588
[19]; first compound 2 µM
  relative viability: 0.544
[19]; first compound 6.325 µM
  relative viability: 0.715
[19]; first compound 20 µM
  relative viability: 0.163
